In JPH1029937A, “メフェナム酸水溶液製剤” (KOBAYASHI SEIYAKU KOGYO KK, priority 1996, dated 1997):

What was measured:
[1] = Solubility of mefenamic acid in water and various aqueous solutions; assay type: physicochemical; details: for solubility: aqueous solution containing polyvinylpyrrolidone and basic substance
[2] = in words, background statement; cited from earlier work

solubility [1]: 高い溶解性を示し
solubility ([1]; with nonionic surfactant of HLB 14-15 added): 溶解性が飛躍的に向上する
solubility and stability ([1]; aqueous solution of polyvinylpyrrolidone and surfactant mixture, approximately pH 7.0-8.0): 良好な溶解性と安定性を示す
SMILES: Cc1cccc(Nc2ccccc2C(=O)O)c1C [メフェナム酸, N−2,3−キシリルアントラニル酸]
solubility in water [2]: 水に極めて溶けにくく
